# US6951882B2, “Substituted 4-phenyl-[1,3]-dioxanes” (Janssen Pharmaceutica N.V., priority 2002, dated 2005)
# Target: T1, orexin-2 receptor (Homo sapiens, UniProt O43614)
# T1 construct: expressed in transfected cells; host or cells: CHO-K1 (preferred) or HEK-293 recombinant clones
# T1 sequence (O43614 1-444): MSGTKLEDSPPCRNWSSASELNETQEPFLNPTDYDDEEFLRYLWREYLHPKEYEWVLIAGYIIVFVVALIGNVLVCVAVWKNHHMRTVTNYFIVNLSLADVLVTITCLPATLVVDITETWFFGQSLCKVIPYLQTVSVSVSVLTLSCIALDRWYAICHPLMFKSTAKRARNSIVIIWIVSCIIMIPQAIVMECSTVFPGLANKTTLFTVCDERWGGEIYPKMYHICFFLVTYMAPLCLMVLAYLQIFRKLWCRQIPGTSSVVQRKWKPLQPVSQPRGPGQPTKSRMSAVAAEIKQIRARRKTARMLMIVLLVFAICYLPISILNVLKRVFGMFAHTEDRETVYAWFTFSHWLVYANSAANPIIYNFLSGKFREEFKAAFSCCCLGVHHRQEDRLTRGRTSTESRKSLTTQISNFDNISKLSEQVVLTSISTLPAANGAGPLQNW
# Assay: Orexin radioligand binding assay (125I-orexin A, adherent recombinant cells)
# Settings: 125I-orexin A displacement, recombinant CHO-K1 or HEK-293 cells expressing the orexin receptor
# Procedure: The reaction was quenched with 100 μL of 10% w/v bovine serum albumin, then the products were pre-purified using Waters Maxi-Clean C18 cartridges (Alltech, San Jose, Calif.). The mobile phase for the reverse phase separations (pre-purification and gradient HPLC) was 0.1% TFA, and the eluent was 0.1% TFA in acetonitrile. After removing the acetonitrile from the Maxi-Clean cartridge eluent by lyophilization, the labeled compound was further purified by gradient HPLC using a Vydac (Hesperia, Calif.) analytical C18 HPLC column. A gradient of 2% acetonitrile/min was used and fractions were collected every 0.75 min at a flow rate of 1.5 mL/min.
# Radioligand binding assays were performed in opaque, white 96-well tissue culture plates pretreated with poly-D-lysine (Bio-Coat plates, Becton Dickinson, Franklin Lakes, N.J.). Cells expressing the orexin receptor were seeded at 30,000 cells/well in 100 μL/well Ham's F12 with 10% heat inactivated fetal bovine serum, penicillin/streptomycin and 800 mg/L G418. […] In preparation for the binding assay, the cell culture medium was aspirated away, and the cells were gently washed with 100 μL-well binding buffer (Dulbecco's phosphate buffered saline containing 0.1% w/v bovine serum albumin). […] The assay was terminated by aspirating the liquid from the wells, washing the wells with iced binding buffer, aspirating the wells dry, adding 50 μL/well scintillation cocktail (MicroScint 40, Packard Biosciences, Meriden Conn.), and counting the plate(s) in a Packard TopCount scintillation counter. […] Data were analyzed using GraphPad Prizm software to calculate Ki values.
row,Compound,Ki [µM]
1,"CC1(C)OC[C@H](NC(=O)Nc2cc(Cl)ccc2Cl)[C@H](c2ccccc2)O1 [Example 10, 1-(2,5-Dichloro-phenyl)-3-((4S,5S)-2,2-dimethyl-4-phenyl-[1,3]dioxan-5-yl)-urea]",0.098
2,"CC1(C)OC[C@H](NC(=O)Nc2ccccc2-c2ccsc2)[C@H](c2ccccc2)O1 [Example 15, 1-((4S,5S)-2,2-Dimethyl-4-phenyl-[1,3]dioxan-5-yl)-3-(2-thiophen-3-yl-phenyl)-urea]",0.1
3,"CC1(C)OC[C@H](NC(=O)Nc2cc(C(F)(F)F)ccc2Cl)[C@H](c2ccccc2)O1 [Example 17, 1-(2-Chloro-5-trifluoromethyl-phenyl)-3-((4S,5S)-2,2-dimethyl-4-phenyl-[1,3]dioxan-5-yl)-urea]",0.12
4,"CC1(C)OC[C@H](NC(=O)Nc2ccccc2Oc2ccccc2)[C@H](c2ccccc2)O1 [Example 21, 1-((4S,5S)-2,2-Dimethyl-4-phenyl-[1,3]dioxan-5-yl)-3-(2-phenoxy-phenyl)-urea]",0.21
5,"CC1(C)OC[C@H](/N=C(\S)Nc2ccc(Cl)cc2Cl)[C@H](c2ccccc2)O1 [Example 22, 1-(2,4-Dichloro-phenyl)-3-((4S,5S)-2,2-dimethyl-4-phenyl-[1,3]dioxan-5-yl)-thiourea]",0.28
6,"CC1(C)OC[C@H](NC(=O)Nc2ccccc2-c2cccnc2)[C@H](c2ccccc2)O1 [Example 23, 1-((4S,5S)-2,2-Dimethyl-4-phenyl-[1,3]dioxan-5-yl)-3-(2-pyridin-3-yl-phenyl)-urea]",0.32
7,"CC1(C)OC[C@H](/N=C(\S)Nc2ccccc2Br)[C@H](c2ccccc2)O1 [Example 24, 1-(2-Bromo-phenyl)-3-((4S,5S)-2,2-dimethyl-4-phenyl-[1,3]dioxan-5-yl)-thiourea]",0.54
8,"O=C(Nc1ccc(Br)cc1Br)N[C@H]1COC2(CCCCC2)O[C@H]1c1ccccc1 [Example 25, 1-(2,4-Dibromo-phenyl)-3-((2S,3S)-2-phenyl-1,5-dioxa-spiro[5.5]undec-3-yl)-urea]",0.7
9,"O=C(Nc1ccccc1Br)N[C@H]1COC2(CCCCC2)O[C@H]1c1ccccc1 [Example 26, 1-(2-Bromo-phenyl)-3-((2S,3S)-2-phenyl-1,5-dioxa-spiro[5.5]undec-3-yl)-urea]",0.98
10,"Cc1ccc(/N=C(\NC#N)N[C@H]2COC(C)(C)O[C@H]2c2ccccc2)c(Br)c1 [Example 27, N-(2-Bromo-4-methyl-phenyl)-N′-((4S,5S)-2,2-dimethyl-4-phenyl-[1,3]dioxan-5-yl)-N″-cyanoguanidine]",1
11,"CC1(c2ccccc2)OC[C@H](NC(=O)Nc2ccccc2Br)[C@H](c2ccccc2)O1 (stereo partly drawn) [Example 28, 1-(2-Bromo-phenyl)-3-((4S,5S)-2-methyl-2,4-diphenyl-[1,3]dioxan-5-yl)-urea]",2.6
12,"Cc1ccc(NC(=O)N[C@H]2COC(C)(C)O[C@H]2c2ccccc2)c(C)c1 [Example 29, 1-(2,4-Dimethyl-phenyl)-3-((4S,5S)-2,2-dimethyl-4-phenyl-[1,3]dioxan-5-yl)-urea]",0.2
13,"CC1(C)OC[C@H](NC(=O)Nc2ccccc2Cl)[C@H](c2ccccc2)O1 [Example 30, 1-(2-Chloro-phenyl)-3-((4S,5S)-2,2-dimethyl-4-phenyl-[1,3]dioxan-5-yl)-urea]",0.3
14,"CC1(C)OC[C@H](NC(=O)Nc2ccccc2F)[C@H](c2ccccc2)O1 [Example 31, 1-((4S,5S)-2,2-Dimethyl-4-phenyl-[1,3]dioxan-5-yl)-3-(2-fluoro-phenyl)-urea]",1.55
15,"Cc1ccccc1NC(=O)N[C@H]1COC(C)(C)O[C@H]1c1ccccc1 [Example 32, 1-((4S,5S)-2,2-Dimethyl-4-phenyl-[1,3]dioxan-5-yl)-3-o-tolyl-urea]",0.65
16,"CC1(C)OC[C@H](NC(=O)Nc2ccccc2[N+](=O)[O-])[C@H](c2ccccc2)O1 [Example 33, 1-((4S,5S)-2,2-Dimethyl-4-phenyl-[1,3]dioxan-5-yl)-3-(2-nitro-phenyl)-urea]",0.58
17,"CC1(C)OC[C@H](NC(=O)Cc2ccccc2Br)[C@H](c2ccccc2)O1 [Example 34, 2-(2-Bromo-phenyl)-N-((4S,5S)-2,2-dimethyl-4-phenyl-[1,3]dioxan-5-yl)-acetamide]",2.2
18,"CC1(C)OC[C@H](NC(=O)Oc2ccccc2Cl)[C@H](c2ccccc2)O1 [Example 35, ((4S,5S)-2,2-Dimethyl-4-phenyl-[1,3]dioxan-5-yl)-carbamic acid 2-chloro-phenyl ester]",2.6
19,"CC1(C)OC[C@H](NC(=O)Nc2ccc(Br)cc2)[C@H](c2ccccc2)O1 [Example 36, 1-(4-Bromo-phenyl)-3-((4S,5S)-2,2-dimethyl-4-phenyl-[1,3]dioxan-5-yl)-urea]",1.4
20,"COc1ccccc1NC(=O)N[C@H]1COC(C)(C)O[C@H]1c1ccccc1 [Example 37, 1-((4S,5S)-2,2-Dimethyl-4-phenyl-[1,3]dioxan-5-yl)-3-(2-methoxy-phenyl)-urea]",6
21,"CC1(C)OC[C@H](NC(=O)Nc2ccc(-c3cccnc3)cc2)[C@H](c2ccccc2)O1 [Example 38, 1-((4S,5S)-2,2-Dimethyl-4-phenyl-[1,3]dioxan-5-yl)-3-(4-pyridin-3-yl-phenyl)-urea]",0.32
22,"CC1(C)OC[C@H](NC(=O)Nc2ccc(Cl)cc2)[C@H](c2ccccc2)O1 [Example 39, 1-(4-Chloro-phenyl)-3-((4S,5S)-2,2-dimethyl-4-phenyl-[1,3]dioxan-5-yl)-urea]",0.3
23,"COC(=O)c1ccccc1NC(=O)N[C@H]1COC(C)(C)O[C@H]1c1ccccc1 [Example 40, 2-[3-((4S,5S)-2,2-Dimethyl-4-phenyl-[1,3]dioxan-5-yl)-ureido]-benzoic acid methyl ester]",1.2
24,"CC1(C)OC[C@H](NC(=O)Nc2ccccc2C(=O)O)[C@H](c2ccccc2)O1 [Example 41, 2-[3-((4S,5S)-2,2-Dimethyl-4-phenyl-[1,3]dioxan-5-yl)-ureido]-benzoic acid]",0.71

# Stronger by Ki, values ahead:
row,Ki [µM],Compound
1,0.05,"Cc1cc(Br)ccc1NC(=O)N[C@H]1COC(C)(C)O[C@H]1c1ccccc1 [Example 2, 1-(4-Bromo-2-methyl-phenyl)-3-((4S,5S)-2,2-dimethyl-4-phenyl-[1,3]dioxan-5-yl)-urea]"
2,0.027,"Cc1ccc(Cl)c(NC(=O)N[C@H]2COC(C)(C)O[C@H]2c2ccccc2)c1 [Example 3, 1-(2-Chloro-5-methyl-phenyl)-3-((4S,5S)-2,2-dimethyl-4-phenyl-[1,3]dioxan-5-yl)-urea]"
3,0.07,"CC1(C)OC[C@H](NC(=O)Nc2ccccc2I)[C@H](c2ccccc2)O1 [Example 6, 1-((4S,5S)-2,2-Dimethyl-4-phenyl-[1,3]dioxan-5-yl)-3-(2-iodo-phenyl)-urea]"
4,0.045,"CC1(C)OC[C@H](NC(=O)Nc2ccc(I)cc2)[C@H](c2ccccc2)O1 [Example 7, 1-((4S,5S)-2,2-Dimethyl-4-phenyl-[1,3]dioxan-5-yl)-3-(4-iodo-phenyl)-urea]"
5,0.076,"CC1(C)OC[C@H](NC(=O)Nc2ccccc2C(F)(F)F)[C@H](c2ccccc2)O1 [Example 8, 1-((4S,5S)-2,2-Dimethyl-4-phenyl-[1,3]dioxan-5-yl)-3-(2-trifluoromethyl-phenyl)-urea]"
6,0.087,"Cc1cc(NC(=O)N[C@H]2COC(C)(C)O[C@H]2c2ccccc2)ccc1Br [Example 9, 1-(4-Bromo-3-methyl-phenyl)-3-((4S,5S)-2,2-dimethyl-4-phenyl-[1,3]dioxan-5-yl)-urea]"
7,0.064,"Cc1ccc(C)c(NC(=O)N[C@H]2COC(C)(C)O[C@H]2c2ccccc2)c1 [Example 11, 1-(2,5-Dimethyl-phenyl)-3-((4S,5S)-2,2-dimethyl-4-phenyl-[1,3]dioxan-5-yl)-urea]"
8,0.034,"CC1(C)OC[C@H](NC(=O)Nc2ccccc2-c2cccs2)[C@H](c2ccccc2)O1 [Example 13, 1-((4S,5S)-2,2-Dimethyl-4-phenyl-[1,3]dioxan-5-yl)-3-(2-thiophen-2-yl-phenyl)-urea]"
9,0.063,"CC1(C)OC[C@H](NC(=O)Nc2ccccc2-c2cccc(Cl)c2)[C@H](c2ccccc2)O1 [Example 14, 1-(3′-Chloro-biphenyl-2-yl)-3-((4S,5S)-2,2-dimethyl-4-phenyl-[1,3]dioxan-5-yl)-urea]"
10,0.056,"CC1(C)OC[C@H](NC(=O)Nc2ccccc2-c2ccccc2)[C@H](c2ccccc2)O1 [Example 16, 1-Biphenyl-2-yl-3-((4S,5S)-2,2-dimethyl-4-phenyl-[1,3]dioxan-5-yl)-urea]"
11,0.06,"CC1(C)OC[C@H](NC(=O)Nc2ccccc2C#N)[C@H](c2ccccc2)O1 [Example 20, 1-(2-Cyano-phenyl)-3-((4S,5S)-2,2-dimethyl-4-phenyl-[1,3]dioxan-5-yl)-urea]"
